One assay addresses Lck kinase (Homo sapiens, UniProt P06239). Kind of assay: Lck kinase inhibition. The assay is classed as biochemical.
The next assay concerns the target Syk kinase (Homo sapiens, UniProt P43405). Kind of assay: cell-based Syk assay. As to conditions: read-out: IC50, inhibition of Syk kinase.
Another assay has as its target kinase Lyn b (Homo sapiens, UniProt P07948). Description: Lyn b kinase inhibition. The assay is classed as biochemical.
Assay [1] relates to JAK kinases (JAK1 and JAK3). Description: JAK inhibition: IL-4-stimulated CD23 upregulation in human Ramos B-cells, FACS. The assay is classed as cell-based. As to conditions: IL-4 stimulated Ramos B-cells, read-out: IC50, inhibition of JAK kinases in cellular assay. Put shortly:
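Ramos B-cells in RPMI with 5% FBS were pre-incubated with compound for 1 h at 37 °C, then stimulated with IL-4 (50 U/ml final) for 20–24 h. CD23 upregulation was measured by anti-CD23-PE staining and FACS.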

In the next assay the target is PRK1 kinase (Homo sapiens, UniProt Q16512). Description: PRK1 kinase inhibition. The assay is classed as biochemical.
A further assay concerns the target T1, Axl kinase (Homo sapiens, UniProt P30530).
T1 construct: endogenous in cells; host or cells: HeLa cells
T1 sequence (P30530 26-894): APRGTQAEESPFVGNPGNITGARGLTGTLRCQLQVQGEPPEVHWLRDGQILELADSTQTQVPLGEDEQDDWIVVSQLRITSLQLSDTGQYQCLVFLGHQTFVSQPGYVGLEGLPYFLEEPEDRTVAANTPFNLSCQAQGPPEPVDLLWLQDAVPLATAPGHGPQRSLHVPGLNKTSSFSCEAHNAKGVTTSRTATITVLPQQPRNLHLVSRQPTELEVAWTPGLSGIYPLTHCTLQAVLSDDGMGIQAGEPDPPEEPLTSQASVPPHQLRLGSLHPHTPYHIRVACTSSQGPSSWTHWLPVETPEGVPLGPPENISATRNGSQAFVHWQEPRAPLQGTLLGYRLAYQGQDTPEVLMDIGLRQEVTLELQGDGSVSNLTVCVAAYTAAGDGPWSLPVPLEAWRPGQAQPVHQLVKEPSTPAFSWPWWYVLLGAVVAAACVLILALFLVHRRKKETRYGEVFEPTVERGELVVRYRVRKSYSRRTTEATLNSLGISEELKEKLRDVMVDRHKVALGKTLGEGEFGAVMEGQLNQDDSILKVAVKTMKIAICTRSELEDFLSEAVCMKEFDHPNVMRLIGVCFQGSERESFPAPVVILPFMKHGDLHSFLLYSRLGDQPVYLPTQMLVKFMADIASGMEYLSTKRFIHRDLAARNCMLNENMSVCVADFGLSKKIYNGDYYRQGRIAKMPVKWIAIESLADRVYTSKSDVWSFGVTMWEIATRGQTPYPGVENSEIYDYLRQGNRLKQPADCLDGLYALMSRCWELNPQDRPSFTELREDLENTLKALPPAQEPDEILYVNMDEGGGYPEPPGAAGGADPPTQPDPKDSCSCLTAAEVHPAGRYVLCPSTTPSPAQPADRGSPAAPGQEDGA
Description: Phospho-Akt in-cell Western assay (Axl antibody cross-linking, Hela cells). The assay is classed as cell-based. The following applies: phospho-Akt readout, read-out: IC50, inhibition of Axl kinase. In outline: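 HeLa cells were starved 24 h in 0.5% FCS with 500 ng/mL Axl/Fc, pretreated with compound 1 h at 37 °C, then stimulated 5 min by cross-linked anti-Axl antibodies. Phospho-Akt was detected by in-cell chemiluminescent immunoassay and normalized to crystal violet cell number at 590 nm.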

Another assay concerns the target Aurora kinase B (Homo sapiens, UniProt Q96GD4). As to conditions: compared to the (1S,2S,3R,4R) diastereomers; cited from earlier work.
The test system of a further assay is tumor cell lines. The following applies: cited from earlier work; for antiproliferative activity against tumor cell types: in vitro assays, variety of tumor cell lines.
The next assay concerns Aurora kinases. The following applies: cited from earlier work.

pIC50: −log10 of the molar value. Like-named read-outs stand apart in the source and are kept apart here.

Sequence of PRK1 kinase (Q16512 whole entry): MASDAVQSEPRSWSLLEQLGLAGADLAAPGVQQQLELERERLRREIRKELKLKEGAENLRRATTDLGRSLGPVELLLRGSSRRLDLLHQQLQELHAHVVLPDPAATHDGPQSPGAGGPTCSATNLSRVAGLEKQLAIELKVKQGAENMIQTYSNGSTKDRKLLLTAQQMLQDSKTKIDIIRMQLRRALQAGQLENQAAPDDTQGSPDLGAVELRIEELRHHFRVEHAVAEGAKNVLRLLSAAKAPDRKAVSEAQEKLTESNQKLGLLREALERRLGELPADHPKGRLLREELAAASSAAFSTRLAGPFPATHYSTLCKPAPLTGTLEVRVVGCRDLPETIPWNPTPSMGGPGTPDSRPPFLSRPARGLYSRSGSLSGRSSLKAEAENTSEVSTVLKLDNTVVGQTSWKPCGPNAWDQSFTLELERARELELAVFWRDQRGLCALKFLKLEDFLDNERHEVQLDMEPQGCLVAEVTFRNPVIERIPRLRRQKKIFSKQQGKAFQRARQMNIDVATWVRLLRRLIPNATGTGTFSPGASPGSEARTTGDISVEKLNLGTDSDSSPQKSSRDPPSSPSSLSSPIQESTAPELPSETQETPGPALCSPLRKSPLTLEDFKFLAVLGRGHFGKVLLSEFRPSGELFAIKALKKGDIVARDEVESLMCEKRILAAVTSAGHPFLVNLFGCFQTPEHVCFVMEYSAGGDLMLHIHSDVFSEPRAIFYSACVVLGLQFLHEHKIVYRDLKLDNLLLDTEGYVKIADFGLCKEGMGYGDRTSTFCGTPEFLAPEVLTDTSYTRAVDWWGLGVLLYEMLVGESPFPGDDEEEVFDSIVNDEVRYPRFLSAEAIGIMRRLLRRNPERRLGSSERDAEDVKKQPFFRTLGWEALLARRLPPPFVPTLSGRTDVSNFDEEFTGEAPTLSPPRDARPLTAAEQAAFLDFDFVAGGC
Sequence of Lck kinase (P06239 whole entry): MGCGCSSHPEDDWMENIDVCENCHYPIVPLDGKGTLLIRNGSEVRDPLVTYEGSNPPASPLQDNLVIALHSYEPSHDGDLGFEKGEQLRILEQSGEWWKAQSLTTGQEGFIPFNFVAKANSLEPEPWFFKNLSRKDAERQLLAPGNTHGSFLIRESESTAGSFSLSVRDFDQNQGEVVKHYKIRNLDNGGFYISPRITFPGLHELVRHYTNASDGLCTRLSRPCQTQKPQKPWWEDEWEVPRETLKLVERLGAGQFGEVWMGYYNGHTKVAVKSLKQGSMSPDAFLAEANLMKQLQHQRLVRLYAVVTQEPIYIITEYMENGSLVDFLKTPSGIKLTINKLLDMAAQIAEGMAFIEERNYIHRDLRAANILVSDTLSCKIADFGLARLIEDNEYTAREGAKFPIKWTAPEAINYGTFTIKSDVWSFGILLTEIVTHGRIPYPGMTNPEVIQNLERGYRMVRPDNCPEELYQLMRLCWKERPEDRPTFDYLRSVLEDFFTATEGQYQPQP
Sequence of kinase Lyn b (P07948 1-491 isoform P07948-2): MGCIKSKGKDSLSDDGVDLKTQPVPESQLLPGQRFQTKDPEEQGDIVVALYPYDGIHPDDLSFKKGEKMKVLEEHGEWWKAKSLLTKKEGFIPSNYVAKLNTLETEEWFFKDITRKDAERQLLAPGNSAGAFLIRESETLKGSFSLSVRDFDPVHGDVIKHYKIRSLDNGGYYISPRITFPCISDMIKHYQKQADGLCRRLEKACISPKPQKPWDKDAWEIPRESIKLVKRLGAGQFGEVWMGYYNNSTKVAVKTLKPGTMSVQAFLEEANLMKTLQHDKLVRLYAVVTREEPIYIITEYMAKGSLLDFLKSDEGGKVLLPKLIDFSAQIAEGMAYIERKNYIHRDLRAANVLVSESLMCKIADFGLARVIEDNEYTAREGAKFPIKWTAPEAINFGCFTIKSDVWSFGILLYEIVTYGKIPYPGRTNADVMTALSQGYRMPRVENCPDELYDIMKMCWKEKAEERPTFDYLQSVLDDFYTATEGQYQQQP
Sequence of Aurora kinase B (Q96GD4 whole entry, species assumed): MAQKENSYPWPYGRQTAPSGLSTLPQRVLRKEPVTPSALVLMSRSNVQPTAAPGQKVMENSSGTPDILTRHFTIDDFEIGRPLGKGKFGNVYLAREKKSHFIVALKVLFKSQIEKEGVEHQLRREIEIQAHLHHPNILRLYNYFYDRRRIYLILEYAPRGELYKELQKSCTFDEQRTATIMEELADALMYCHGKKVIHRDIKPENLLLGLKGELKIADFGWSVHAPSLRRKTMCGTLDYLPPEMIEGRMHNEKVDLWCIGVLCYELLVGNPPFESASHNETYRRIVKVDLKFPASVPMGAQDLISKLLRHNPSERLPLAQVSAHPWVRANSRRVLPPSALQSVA

For `COc1ccccc1Nc1nc(NC2C3C=CC(C3)C2C(N)=O)c2nc[nH]c2n1` (racemic) [Compound 136, Racemic-(2-exo,3-exo-)-N6-(3-aminocarbonylbicyclo[2.2. 1]hept-5-en-2-yl)-N2-(2-methoxy)phenyl-1H-purine-2,6-diamine], the pIC50 – broadly, the negative decadic logarithm of the IC50, by convention in mol/L – on Lck kinase is more than 5.00; at Syk kinase, more than 5.00; at kinase Lyn b, less than 5.00.

In the case of `CC(C)Oc1cccc(Nc2nc(NC3CC4CCC3C4)c3nc[nH]c3n2)c1` (racemic) [Compound 153, Racemic-(2-exo)-N6-(bicyclo[2.2.1]hept-2-yl)-N2-(3-isopropoxy)phenyl-1H-purine-2,6-diamine], the pIC50 was more than 5.30 against Lck kinase, more than 5.00 at Syk kinase and more than 5.30 in assay [1].

Turning to `N#Cc1ccc(-c2ccc(Nc3nc(NC4C5C=CC(C5)C4C(N)=O)c4cc[nH]c4n3)cc2)cc1` (racemic) [Compound 220, Racemic-(2-exo,3-exo)-N4-(3-aminocarbonylbicyclo [2.2.1]hept-5-en-2-yl)-N2-[(4′-cyano[1,1′-biphenyl]-4-yl)]-1H-pyrrolo[2,3-d]pyrimidine-2,4-diamine], the pIC50 against PRK1 kinase is more than 5.30; at Axl kinase, less than 5.00.

With `NC(=O)C1C2C=CC(C2)C1Nc1nc(Nc2cccc(CN3CCOCC3)c2)nc2[nH]ccc12` (racemic) [Compound 221, Racemic-(2-exo,3-exo)-N4-(3-aminocarbonylbicyclo [2.2.1]hept-5-en-2-yl)-N2-(3-morpholin-4-yl-methylphenyl)-1H-pyrrolo[2,3-d]pyrimidine-2,4-diamine], the pIC50 against PRK1 kinase, on Axl kinase and at Syk kinase was more than 5.30 each time.

Turning to `Cc1cc(Nc2ncc(F)c(NC3C4C=CC(C4)C3C(N)=O)n2)ccc1N1CCN(C)CC1` [(1R,2R,3S,4S) diastereomer, N4-(3-aminocarbonylbicyclo [2.2.1]hept-5-en-2-yl)-5-fluoro-N2-[3-methyl-4-(4-methylpiperazin-1-yl)phenyl]-2,4-pyrimidinediamine], the “inhibition of Aurora kinase B in cells” value at Aurora kinase B is recorded as “similarly superior results”. The “potency of (1R,2R,3S,4S) diastereomer relative to (1S,2S,3R,4R) diastereomer” value in the assay on tumor cell lines is listed as “approximately 1000 fold”. In the assay with tumor cell lines (isolated stereoisomers), the “IC50s against tumor cell lines” value is reported as “nanomolar range”.

With `Cc1cc(Nc2ncc(F)c(NC3CCCC3C(N)=O)n2)ccc1N1CCN(C)CC1` [cis (1R,2S), N4-(2-aminocarbonylcyclopent-1-yl)-5-fluoro-N2-[4-(4-methylpiperazin-1-yl)-3-methylphenyl]-2,4-pyrimidinediamine], the “inhibition of Aurora kinases” value in the assay on Aurora kinases was “inhibited Aurora kinases”. The “antiproliferative activity against tumor cell types” value (from here on “antiproliferative activity”) in the assay with tumor cell lines is on record as “inhibit the proliferation”; with tumor cell lines (listed as (1R,2S)), “exhibited antiproliferative activity”.

Regarding `Cc1cc(Nc2ncc(F)c(NC3CCCC3C(N)=O)n2)ccc1N1CCN(C)CC1` [cis (1S,2R), N4-(2-aminocarbonylcyclopent-1-yl)-5-fluoro-N2-[4-(4-methylpiperazin-1-yl)-3-methylphenyl]-2,4-pyrimidinediamine], the “inhibition of Aurora kinases” value in the assay with Aurora kinases is reported as “inhibited Aurora kinases”. Moreover, the “antiproliferative activity” value in the assay with tumor cell lines is given as “inhibit the proliferation”; in the assay on tumor cell lines (listed as cis(1S,2R)), “exhibited antiproliferative activity”.

Consider `Cc1cc(Nc2ncc(F)c(NC3CCCC3C(N)=O)n2)ccc1N1CCN(C)CC1` [trans (1R,2R) diastereomer, N4-(2-aminocarbonylcyclopent-1-yl)-5-fluoro-N2-[4-(4-methylpiperazin-1-yl)-3-methylphenyl]-2,4-pyrimidinediamine], for which the “inhibition of Aurora kinases” value in the assay on Aurora kinases is recorded as “inhibited Aurora kinases”. Besides, the “antiproliferative activity” value with tumor cell lines is “inhibit the proliferation”; with tumor cell lines (listed as trans(1R,2R)), “exhibited antiproliferative activity”.

(Values after patent US7601713B2, “Kinase inhibitors and their uses” (Rigel Pharmaceuticals, Inc., priority 2005, dated 2009).)
